From publication PMC8707451, “Separation and Identification of Antioxidants and Aldose Reductase Inhibitors in Lepechinia meyenii (Walp.) Epling” (Plants, 2021)
Marks after values point to notes of the source that are not given here.

Assays:
[1] = target: rat lens AR (aldose reductase) (Rattus norvegicus, UniProt P07943); test: AR inhibition assay with rat lens AR homogenate;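 further: supernatant of Sprague–Dawley rat lens extract as enzyme, DL-glyceraldehyde substrate, absorbance at 340 nm followed over 6 min, DMSO up to 0.5% v/v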
Method: The eyes of 10-week Sprague–Dawley rats (250–280 g) were removed and kept at −70 °C before use. Then, the lenses were removed from the eyes using surgical scissors and tweezers, ground in a mortar (precooled at −70 °C) and extracted using 0.1 M phosphate-buffered saline (PBS) of pH 6.2 (approximately 0.5 mL of buffer per one rat lens). The extract solution was further centrifuged at 10,000× g for 30 min at 4 °C (Mega 17R, Hanil Science Industry, Gimpo, Korea), and the supernatant was collected and used as rat lens AR homogenate.
For AR inhibition assay, 100 µL of 0.1 M PBS (pH 7.0), 20 µL of AR homogenate, 20 µL of NADPH (cofactor, 2.4 mM in 0.1 M PBS of pH 8.0), 20 µL of the sample (in a mixture of water and DMSO; extracts and fractions 62.5–100 µg/mL, compounds 3.9–500 µM), and 20 µL of ammonium sulfate solution (4 M in 0.1 M PBS of pH 7.0) were pipetted into a 96-well plate. Then, 20 µL of the substrate (in 0.1 M PBS of pH 7.0; 25 mM of DL-glyceraldehyde dimmer) was added, and the absorbance (340 nm) was measured for 6 min using an Epoch microplate spectrophotometer (BioTek Instruments, Winooski, VT, USA). […] DMSO was used to prepare samples, but its ratio was kept within 0.5% (v/v) of the reaction system.
The half-maximal inhibitory concentrations (IC50 values) of samples against DPPH radicals and AR were calculated via linear regression and logarithmic analysis, respectively.

[2] = DPPH radical scavenging assay (antioxidant); conditions: for IC50: pure compounds
Method: The antioxidant potential of the samples was evaluated using DPPH radical scavenging assay, as reported previously. In brief, 180 μL of freshly prepared DPPH solution (0.32 mM in MeOH) was mixed with 20 μL of the sample (in 50% MeOH, extracts and fractions, 50–400 µg/mL; components, 125–500 µM) in a 96-well plate and incubated for 20 min in the dark at 25 °C. Then, the absorbance (570 nm) of the reaction solution was measured using an EL800 microplate reader (Bio-Tek Instruments, Winooski, VT, USA). Quercetin was used as a positive control.

[3] = read-out: AR Inhibitory Activity Inhibition (%)

| IC50 [1] [µM] | inhibition at 0.39 µM [1, 3] [%] | inhibition at 0.78 µM [1, 3] [%] | inhibition at 1.56 µM [1, 3] [%] | IC50 ([2]; linear regression) [µM] | inhibition at 3.125 µM [1, 3] [%] | Compound | inhibition at 12.5 µM [1, 3] [%] | inhibition at 25 µM [1, 3] [%] | inhibition at 50 µM [1, 3] [%] | DPPH Scavenging Activity Inhibition (%) ([2]; compound concentration 12.5 µM) | DPPH Scavenging Activity Inhibition (%) ([2]; compound concentration 25 µM) | DPPH Scavenging Activity Inhibition (%) ([2]; compound concentration 50 µM) | inhibition at 2.5 µg/mL [1, 3] [%] | inhibition at 5 µg/mL [1, 3] [%] | inhibition at 6.25 µM [1, 3] [%] | inhibition at 10 µg/mL [1, 3] [%] | DPPH Scavenging Activity IC50 ([2]; extracts, fractions and quercetin, linear regression) | DPPH Scavenging Activity Inhibition (%) ([2]; sample concentration 5 µg/mL) | DPPH Scavenging Activity Inhibition (%) ([2]; sample concentration 10 µg/mL) | DPPH Scavenging Activity Inhibition (%) ([2]; sample concentration 20 µg/mL) |
| --- | --- | --- | --- | --- | --- | --- | --- | --- | --- | --- | --- | --- | --- | --- | --- | --- | --- | --- | --- | --- |
| – | – | – | – | – | – | O=C(O)/C=C/c1ccc(O)c(O)c1 [Caffeic acid (1), Caffeic acid] | 12.3 ± 2.09 | 17.8 ± 0.41 | 20.3 ± 0.62 | 8.60 ± 0.87 | 20.21 ± 0.58 | 43.33 ± 0.69 | – | – | – | – | – | – | – | – |
| – | – | – | – | – | – | COc1ccc(-c2cc(=O)c3c(O)cc(O)cc3o2)cc1O [Diosmetin (6), Diosmetin] | 10.5 ± 3.79 | 22 ± 1.25 | 34 ± 1.03 | 0.14 ± 0.34 | 0.46 ± 0.35 | 3.18 ± 0.42 | – | – | – | – | – | – | – | – |
| – | – | – | – | – | – | COc1ccc(-c2cc(=O)c3c(O)cc(O[C@@H]4O[C@H](CO[C@@H]5O[C@@H](C)[C@H](O)[C@@H](O)[C@H]5O)[C@@H](O)[C@H](O)[C@H]4O)cc3o2)cc1O [Diosmin (4), Diosmin] | 8.91 ± 0.62 | 11.2 ± 0.82 | 12.3 ± 0.62 | 0.31 ± 0.69 | 0.61 ± 1.08 | 2.61 ± 0.67 | – | – | – | – | – | – | – | – |
| 1.02 ± 0.07 | 27.4 ± 2.66 | 43.2 ± 0.62 | 60.5 ± 2.05 | 30.54 ± 0.13 | – | CCOC(=O)[C@@H](Cc1ccc(O)c(O)c1)OC(=O)/C=C/c1ccc(O)c(O)c1 [Ethyl rosmarinate (S1), Ethyl rosmarinate] | – | – | – | 22.02 ± 0.35 | 38.38 ± 0.53 | 83.09 ± 0.21 | – | – | – | – | – | – | – | – |
| – | – | – | – | – | – | COc1ccc([C@@H]2CC(=O)c3c(O)cc(O[C@@H]4O[C@H](CO[C@@H]5O[C@@H](C)[C@H](O)[C@@H](O)[C@H]5O)[C@@H](O)[C@H](O)[C@H]4O)cc3O2)cc1O [Hesperidin (2), Hesperidin] | 1.78 ± 0.33 | 10 ± 1.22 | 11.6 ± 0.41 | 1.20 ± 1.18 | 2.57 ± 0.77 | 3.37 ± 1.32 | – | – | – | – | – | – | – | – |
| 1.17 ± 0.08 | 22.1 ± 0.85 | 40.9 ± 3.47 | 56.7 ± 0.85 | 33.01 ± 0.27 | – | COC(=O)[C@@H](Cc1ccc(O)c(O)c1)OC(=O)/C=C/c1ccc(O)c(O)c1 [Methyl rosmarinate (5), Methyl rosmarinate] | – | – | – | 18.68 ± 0.63 | 37.59 ± 0.60 | 76.21 ± 1.04 | – | – | – | – | – | – | – | – |
| 1.29 ± 0.01 | 12.3 ± 1.84 | 37.9 ± 1.25 | 53.67 ± 0.41 | 32.7 ± 0.08 | – | CCCOC(=O)[C@@H](Cc1ccc(O)c(O)c1)OC(=O)/C=C/c1ccc(O)c(O)c1 [Propyl rosmarinate (S2), Propyl rosmarinate] | – | – | – | 17.68 ± 0.83 | 37.15 ± 0.29 | 77.82 ± 0.46 | – | – | – | – | – | – | – | – |
| 4.08 ± 0.11 | – | – | – | 36.91 ± 0.35 | 42.6 ± 1.63 | O=C(/C=C/c1ccc(O)c(O)c1)O[C@H](Cc1ccc(O)c(O)c1)C(=O)O [Rosmarinic acid (3), Rosmarinic acid] | 76 ± 1.03 | – | – | 19.05 ± 1.33 | 34.35 ± 0.69 | 67.04 ± 0.64 | – | – | 62.9 ± 2.1 | – | – | – | – | – |
| 1.54 ± 0.04 | 13.1 ± 0.47 | 28.6 ± 0.47 | 51.4 ± 0.94 | 30.02 ± 0.1 | – | CCCCOC(=O)[C@@H](Cc1ccc(O)c(O)c1)OC(=O)/C=C/c1ccc(O)c(O)c1 [n-Butyl rosmarinate (7), n-Butyl rosmarinate] | – | – | – | 19.98 ± 0.29 | 40.73 ± 1.21 | 84.85 ± 0.81 | – | – | – | – | – | – | – | – |

| Compound | IC50 [1] [µM] | inhibition at 0.39 µM [1, 3] [%] | inhibition at 0.78 µM [1, 3] [%] | inhibition at 1.56 µM [1, 3] [%] | IC50 ([2]; linear regression) [µM] | inhibition at 3.125 µM [1, 3] [%] | inhibition at 12.5 µM [1, 3] [%] | inhibition at 25 µM [1, 3] [%] | inhibition at 50 µM [1, 3] [%] | DPPH Scavenging Activity Inhibition (%) ([2]; compound concentration 12.5 µM) | DPPH Scavenging Activity Inhibition (%) ([2]; compound concentration 25 µM) | DPPH Scavenging Activity Inhibition (%) ([2]; compound concentration 50 µM) | inhibition at 2.5 µg/mL [1, 3] [%] | inhibition at 5 µg/mL [1, 3] [%] | inhibition at 6.25 µM [1, 3] [%] | inhibition at 10 µg/mL [1, 3] [%] | DPPH Scavenging Activity IC50 ([2]; extracts, fractions and quercetin, linear regression) | DPPH Scavenging Activity Inhibition (%) ([2]; sample concentration 5 µg/mL) | DPPH Scavenging Activity Inhibition (%) ([2]; sample concentration 10 µg/mL) | DPPH Scavenging Activity Inhibition (%) ([2]; sample concentration 20 µg/mL) |
| --- | --- | --- | --- | --- | --- | --- | --- | --- | --- | --- | --- | --- | --- | --- | --- | --- | --- | --- | --- | --- |
| O=c1c(O)c(-c2ccc(O)c(O)c2)oc2cc(O)cc(O)c12 [Quercetin, quercetin, reference compound] | – | – | – | – | 33.19 ± 0.31 | – | 45 ± 1.65 | 65.1 ± 1.47 | – | 22.31 ± 0.92 | 40.39 ± 0.82 | 72.32 ± 0.42 | 38.7 ± 0.91 | 55.3 ± 1.58 | 31.5 ± 1.7 | 64 ± 0.88 | 10.46 ± 0.34 ^e µg/mL | 28.65 ± 0.38 | 54.43 ± 2.07 | 84.78 ± 2.36 |
